The conditions of series [1]: human, in vivo.
Method: Controlled amount of boiled pasta was eaten after the 4 h time point. An initial blood sample (400 μl) was collected using a lancet at a fingertip into heparin tubes followed by samples at 1, 2, 3, 4, 5, 6, 7 and 8 hour after ingestion. Plasma was separated and immediately analysed for fatty acid composition.
The relative bioavailability of fatty acids from composition 2 compared to fish oil is calculated with the formula:
The AUC (calculates area under the curve for concentration vs. time data) is calculated using linear trapezoidal rule. […] The relative bioavailability of compound 1 and compound 5 is calculated with the same formula:
A further series concerns TNF-α. Briefly: LPS-induced TNF-α release by THP-1 monocyte cells (ELISA). As to conditions: THP-1 cells, 100 ng/ml LPS, 4 hours; vehicle gives 400 pg/ml; composition 3 10 μg/ml, curcumin 5 μg/ml. Type of series: cell-based, human. As to the method:
Composition 3 (comprising compounds 1 (11%) and 5 (89%)) at final concentration of 10 μg/ml, curcumin (5 μg/ml) and a 1:1 mixture of composition 3 (10 μg/ml) and curcumin (5 μg/ml) in DMSO (1%) was used for the in vitro assay. Composition 3 prepared according to the same procedure as previously described in Example 2)
The in vitro assay allows evaluation of the potential anti-inflammatory effects of compounds on the induced-release of pro-inflammatory mediator by monocyte cells. Typical human monocyte THP-1 cells, involved in inflammatory processes, are used in this assay. Measurement of pro-inflammatory mediator TNF-α is performed by ELISA (manufactured by R&D Systems) with artificial induction of pro-inflammatory agents by LPS (E. Coli O55:B5) during 4 hours. Known anti-inflammatory agent dexametazone was used as positive control.

Series [2] relates to A-549 human lung cancer cell line. Briefly: in vitro cell viability assay (SRB), A-549. The settings on record: A549, A-549, at 294 μg/ml, 72 hours, read-out: growth inhibition. Type of series: cell-based. As to the method:
(§1) The cell viability assay is performed to measure the relative cell viability status of cancer cells upon exposure to test compounds in comparison to a positive control (etoposide) and a negative control (vehicule). Adherent cells growing in 96-well plates are exposed to test compounds for 3 days (72 hours). […] Test compounds (composition 1 comprising compounds 1, 5 and 6) as well as positive and negative controls were tested in parallel on the same culture plate. All conditions are tested in triplicate. […] Inhibition of 50% of cell growth compared to basal condition is the lower limit indicating a positive biological response (considered as a hit). After the incubation time, total protein content is quantified following staining with the anionic dye sulforhodamine B (SRB). The detection of […], is completed by a microplate reader. […] The amount of […] is directly proportional to the number of living cells in culture. […] Cells were trypsinized using 0.25% trypsine (w/v)/0.53 mM EDTA solution (Hyclone), counted and plated at densities between 1000 and 3000 cells per well in flat bottom 96-well clear plates (Becton Dickinson) in 100 μl of appropriate culture medium supplemented with fetal bovine serum (Hyclone). […] Absorbance was read at 515 nm using a 96-well plate Multiskan Spectrum […] (Thermo Electron Corporation). […]

Series [3] has as its system PC-3 human prostate cancer cell line. Briefly: in vitro cell viability assay (SRB), PC-3. Type of series: cell-based. As to conditions: PC-3, at 294 μg/ml, 72 hours, read-out: growth inhibition. The protocol:
as §1

Series [4] deals with HCT-15 human colon cancer cell line. Briefly: in vitro cell viability assay (SRB), HCT-15. Type of series: cell-based. The settings on record: HCT-15, at 294 μg/ml, 72 hours, read-out: growth inhibition. The protocol:
as §1

Series [5] has as its system BT-549 human breast cancer cell line. Briefly: in vitro cell viability assay (SRB), BT-549. As to conditions: BT-549, at 294 μg/ml, 72 hours, read-out: growth inhibition. Type of series: cell-based. As to the method: as §1

With `CC/C=C\C/C=C\C/C=C\C/C=C\C/C=C\CCCCCC(=O)OCC(O)CO` (stereo not shown) [compound 1], the “relative bioavailability compared to compound 5” value in series [1] is listed as 2.20.

`COc1cc(/C=C/C(=O)CC(=O)/C=C/c2ccc(O)c(OC)c2)ccc1O` [curcumin] had a TNF-α measured in the series on TNF-α of 100 pg/mL.

In turn, `C[C@@H]1C[C@H]2[C@@H]3CCC4=CC(=O)C=C[C@]4(C)[C@@]3(F)[C@@H](O)C[C@]2(C)[C@@]1(O)C(=O)CO` [dexametazone] showed a TNF-α measured with TNF-α of 125 pg/mL.

Broadly, the inhibition is the relative decrease from the control value, in per cent. On to `COc1cc([C@@H]2c3cc4c(cc3[C@@H](O[C@@H]3O[C@@H]5CO[C@@H](C)O[C@H]5[C@H](O)[C@H]3O)[C@H]3COC(=O)[C@H]23)OCO4)cc(OC)c1O` [etoposide], for which the inhibition at 294 µg/mL in series [2], in series [3], in series [4] and in series [5] was 100% throughout.
